Results reported in PMC11763264, “Antibacterial and Antifungal Activities of Linear and Cyclic Peptides Containing Arginine, Tryptophan, and Diphenylalanine” (Antibiotics, 2025).
≈ marks a conversion by molar mass, not a printed value. Non-standard residues stand in square brackets, D forms with d. Residues, ends and D or L forms follow the SMILES beside them. Dip = N[C@H](C(=O)O)C(c1ccccc1)c1ccccc1

Legend:
E. faecalis (ATCC 29212) = test: microbe, parasite or virus in culture; type: cell-based, Enterococcus faecalis
Experimental: (§1) The antibacterial activity of all ten synthesized linear and cyclic peptides was evaluated against MRSA (ATCC BAA-1556), S. aureus (ATCC 29213), E. faecium (ATCC 700221), S. pneumoniae (ATCC 51938), E. faecalis (ATCC 29212), B. subtilis (ATCC-6633), K. pneumoniae (ATCC BAA-1705), P. aeruginosa (ATCC 27883), and E. coli (ATCC 25922). Meropenem and daptomycin were used as positive controls for this study. Certain peptides are marked as “NT” (not tested) against specific bacterial strains based on initial screening data. […] The MIC was determined by micro-broth dilution protocol, where the minimal concentrations were determined to be in wells with no visible bacterial growth.
(§2) All bacterial experiments were carried out in a laminar flow hood (Labconco, Kansas City, MO, USA). The bacterial strains were cultured following the guidelines set by the Clinical Laboratory Standards Institute (CLSI). Antibacterial assays were performed using a standard microtiter dilution method as described in previous studies. The minimum inhibitory concentration (MIC) refers to the lowest peptide concentration that inhibits bacterial growth in wells with no visible bacterial growth. MIC was determined by micro-broth dilution. Bacteria were cultured overnight in 6 mL of Luria Broth (LB). A stock solution of the peptide was prepared in water and DMSO, and a test compound solution with a concentration of 256 µg/mL was made in LB. Meropenem, with a solubility of 8 mg/mL, was prepared as a stock solution at 4 mg/500 µL. An aliquot of the overnight bacteria culture was diluted in normal saline (NS, 1 mL) until achieving a 0.5 McFarland turbidity (1.5 × 10^8 bacterial cell CFU/mL). A 0.5 McFarland compared solution (60 µL) was added to Mueller Hinton Broth (MH) 8940 µL to generate a 1/150 dilution. A 200 µL test compound solution was added to the first well of a 96-well plate, and the remaining wells (2–12) were filled with 100 µL of MH media using a multi-channel pipette from a sterile reservoir. A concentration of […] of the tested peptides was prepared from a stock solution of the samples for testing in Muller−Hinton broth MH media. Peptides stock solution was dissolved in 5% DMSO in water, and the final concentration of DMSO in the first well of assay plate was 2.5% DMSO/H2O and diluted across the assay plate.
(§3) A 100 µL sample from well 1 was pipetted into well 2, and the solution was mixed thoroughly by pipetting up and down. Next, 100 µL was transferred from well 2 to well 3, followed by thorough mixing. This 2-fold serial dilution process continued through well 11, with no additions made to well 12. The final 100 µL from well 11 was discarded. After completing the serial dilution, each well (1–12) contained 100 µL of solution. The bacterial culture in MH media was vortexed and transferred to a sterile reservoir, from which 100 µL was added to each well using a 12-channel pipette. (Note: The dilutions were further diluted upon adding the bacterial solution; for example, the concentration in well 1 started at […] after the addition of the bacterial culture.) The plates were incubated overnight at 37 °C for 24 h. All experiments were performed in triplicate and repeated twice, with controls consisting of bacteria in MH media and positive controls of daptomycin or meropenem.

E. faecium (ATCC 700221) = test: microbe, parasite or virus in culture; type: cell-based, Enterococcus faecium
Experimental: as §1, §2, §3

[1] = tested on: P. aeruginosa (ATCC 27883); test: microbe, parasite or virus in culture; type: cell-based, Pseudomonas aeruginosa
Experimental: as §1, §2, §3

E. coli (ATCC 25922) = test: microbe, parasite or virus in culture; type: cell-based, Escherichia coli
Experimental: as §1, §2, §3

B. subtilis (ATCC-6633) = test: microbe, parasite or virus in culture; type: cell-based, Bacillus subtilis
Experimental: as §1, §2, §3

[2] = tested on: K. pneumoniae (ATCC BAA-1705); test: microbe, parasite or virus in culture; type: cell-based, Klebsiella pneumoniae
Experimental: as §1, §2, §3

S. aureus (ATCC 29213) = test: microbe, parasite or virus in culture; type: cell-based, Staphylococcus aureus
Experimental: as §1, §2, §3

[3] = tested on: S. pneumoniae (ATCC 51938); test: microbe, parasite or virus in culture; type: cell-based, Streptococcus pneumoniae
Experimental: as §1, §2, §3

C. albicans (ATCC 60193) = test: microbe, parasite or virus in culture; type: cell-based, Candida albicans; conditions: ATCC 60193, 24 h
Experimental: (§4) The antifungal activity of all ten synthesized linear and cyclic peptides was evaluated against C. albicans (ATCC 60193), C. parapsilosis (ATCC 22019), and A. fumigatus (AF-293). Fluconazole and amphotericin B were used as positive controls for this study. The MIC was determined at concentrations in wells with no visible fungal growth.
(§5) In this study, C. albicans and C. parapsilosis were cultured on Yeast Peptone Dextrose (YPD) agar containing 1% w/v yeast extract, 2% w/v peptone, 2% w/v D-glucose, and 1.5% agar. A single colony from the agar was selected and cultured in Tryptone soy broth supplemented with 0.1% D-glucose, then incubated for 24 h at 37 °C. The cells were washed twice with PBS by centrifugation at 2000 RPM for 5 min. The pellet was resuspended in 5 mL of PBS, diluted in RPMI 1640 with L-glutamine, supplemented with 2% D-glucose, and the pH adjusted using HEPES buffer. The suspension was then incubated for 50 min at 35 °C to achieve a final cell concentration of 10^6 cells/mL.
(§6) Peptide concentrations of 50, 25, 12.5, 6.25, and 3.1 μg/mL were tested in triplicate and repeated twice. Each well of a 96-well plate was inoculated with the prepared inoculum suspension, which was diluted with RPMI media to a final volume of 200 μL per well. The control well received the same inoculum without any compound. The plates were incubated for 24 h at 37 °C. Fungal and microbial growth were visually observed in the control wells, and the minimum inhibitory concentration (MIC) was determined as the lowest concentration at which no growth was detected in the wells. Amphotericin B was used as a standard antifungal drug.

MRSA (ATCC BAA-1556) = test: microbe, parasite or virus in culture; type: cell-based, Methicillin-Resistant Staphylococcus aureus
Experimental: as §1, §2, §3

[4] = tested on: C. parapsilosis (ATCC 22019); test: microbe, parasite or virus in culture; type: cell-based, Candida parapsilosis; conditions: ATCC 22019, 24 h
Experimental: as §4, §5, §6

MRSA = conditions: previous work; cited from earlier work
From the text: We have previously reported the synthesis of [E4W4], [KR5], [F4R5], [Y4R4], and [R4W4] and tested them against bacterial pathogens.

Row | Compound | MIC (E. faecalis (ATCC 29212); ATCC 29212, 24 h) [µM] | MIC (E. faecium (ATCC 700221); ATCC 700221, 24 h) [µM] | MIC ([1]; ATCC 27883, 24 h) [µM] | MIC (E. coli (ATCC 25922); ATCC 25922, 24 h) [µM] | MIC (B. subtilis (ATCC-6633); ATCC-6633, 24 h) [µM] | MIC ([2]; ATCC BAA-1705, 24 h) [µM] | MIC (S. aureus (ATCC 29213); ATCC 29213, 24 h) [µM] | MIC ([3]; ATCC 51938, 24 h) [µM] | MIC (C. albicans (ATCC 60193)) [µM] | MIC (MRSA (ATCC BAA-1556); ATCC BAA-1556, 24 h) [µM] | MIC [4] [µM] | further results
1 | N=C(N)NCCC[C@H](NC(=O)[C@@H](NC(=O)[C@H](CCCNC(=N)N)NC(=O)[C@H](Cc1c[nH]c2ccccc12)NC(=O)[C@H](CCCNC(=N)N)NC(=O)[C@H](Cc1c[nH]c2ccccc12)NC(=O)[C@H](CCCNC(=N)N)NC(=O)[C@H](Cc1c[nH]c2ccccc12)NC(=O)[C@H](CCCNC(=N)N)NC(=O)[C@@H](N)Cc1c[nH]c2ccccc12)C(c1ccccc1)c1ccccc1)C(=O)O [((DipR)(WR)4)] (H-WRWRWRWR[Dip]R-OH) | 12.5 (≈ 22.1 µg/mL) | 3.1 (≈ 5.48 µg/mL) | 25 (≈ 44.2 µg/mL) | 12.5 (≈ 22.1 µg/mL) | 3.1 (≈ 5.48 µg/mL) | 12.5 (≈ 22.1 µg/mL) | 6.3 (≈ 11.1 µg/mL) | 0.78 (≈ 1.38 µg/mL) | 28.2 (≈ 49.8 µg/mL) | 6.3 (≈ 11.1 µg/mL) | 14.1 (≈ 24.9 µg/mL) | –
2 | N=C(N)NCCC[C@H](NC(=O)[C@H](CCCNC(=N)N)NC(=O)[C@@H](NC(=O)[C@H](CCCNC(=N)N)NC(=O)[C@@H](NC(=O)[C@H](CCCNC(=N)N)NC(=O)[C@@H](NC(=O)[C@H](CCCNC(=N)N)NC(=O)[C@@H](N)C(c1ccccc1)c1ccccc1)C(c1ccccc1)c1ccccc1)C(c1ccccc1)c1ccccc1)C(c1ccccc1)c1ccccc1)C(=O)O [(DipR)4R] (H-[Dip]R[Dip]R[Dip]R[Dip]RR-OH) | 3.1 (≈ 5.25 µg/mL) | 1.6 (≈ 2.71 µg/mL) | 12.5 (≈ 21.2 µg/mL) | 6.3 (≈ 10.7 µg/mL) | 1.6 (≈ 2.71 µg/mL) | 6.3 (≈ 10.7 µg/mL) | 1.6 (≈ 2.71 µg/mL) | 0.39 (≈ 0.66 µg/mL) | 7.4 (≈ 12.5 µg/mL) | 1.6 (≈ 2.71 µg/mL) | 7.4 (≈ 12.5 µg/mL) | –
3 | C[C@@H](O)[C@H]1C(=O)N2C(C(=O)O)=C(S[C@@H]3CN[C@H](C(=O)N(C)C)C3)[C@H](C)[C@H]12 [Meropenem, reference compound] | – | – | – | – | – | – | – | – | – | – | – | MIC (E. faecalis (ATCC 29212); Enterococcus faecalis, ATCC29212, micro-broth dilution, Mueller Hinton broth, 37 °C, 24 h, no visible growth, triplicate, repeated twice): 5.2 µM (≈ 1.99 µg/mL); MIC (E. faecium (ATCC 700221); Enterococcus faecium, ATCC700221, micro-broth dilution, Mueller Hinton broth, 37 °C, 24 h, no visible growth, triplicate, repeated twice): 83 µM (≈ 31.8 µg/mL); MIC ([1]; Pseudomonas aeruginosa, ATCC27883, micro-broth dilution, Mueller Hinton broth, 37 °C, 24 h, no visible growth, triplicate, repeated twice, NA = Not active): 2.6 µM (≈ 0.997 µg/mL); MIC (E. coli (ATCC 25922); Escherichia coli, ATCC25922, micro-broth dilution, Mueller Hinton broth, 37 °C, 24 h, no visible growth, triplicate, repeated twice, NA = Not active): 2.6 µM (≈ 0.997 µg/mL); MIC (B. subtilis (ATCC-6633); Bacillus subtilis, ATCC6633, micro-broth dilution, Mueller Hinton broth, 37 °C, 24 h, no visible growth, triplicate, repeated twice): 0.6 µM (≈ 0.23 µg/mL); MIC ([2]; Klebsiella pneumoniae, ATCCBAA1705, micro-broth dilution, Mueller Hinton broth, 37 °C, 24 h, no visible growth, triplicate, repeated twice, NA = Not active): 42 µM (≈ 16.1 µg/mL); MIC (S. aureus (ATCC 29213); Staphylococcus aureus, ATCC29213, micro-broth dilution, Mueller Hinton broth, 37 °C, 24 h, no visible growth, triplicate, repeated twice): 0.5 µM (≈ 0.192 µg/mL); MIC ([3]; Streptococcus pneumoniae, ATCC51938, micro-broth dilution, Mueller Hinton broth, 37 °C, 24 h, no visible growth, triplicate, repeated twice): 0.6 µM (≈ 0.23 µg/mL); MIC (MRSA (ATCC BAA-1556); Staphylococcus aureus, micro-broth dilution, Mueller Hinton broth, 37 °C, 24 h, no visible growth, triplicate, repeated twice): 5.2 µM (≈ 1.99 µg/mL)
4 | [R4W4] | – | – | – | – | – | – | – | – | – | – | – | MIC against MRSA (MRSA): 2.67 µg/mL
